PMC8179358, “An explicitly designed paratope of amyloid-β prevents neuronal apoptosis in vitro and hippocampal damage in rat brain” (Chemical Science, 2020)
*1 amine or outer side, *2 acyl side, *3 side chain or, on linkers, in order; H or OH if unused. Where a SMILES comes first, the peptide text is derived from it. Bridges are numbered along the chain shown (N, C = ends). Roman numbers before positions name the chains, in order. [ ]: non-standard residue; d: D form. X1 = O=C(CCCCC(=O)[*:2])NCCCOCCOCCOCCCNC(=O)CCC(=O)[*:1]; NMeF = CN[C@@H](Cc1ccccc1)C(=O)O; NMeL = CN[C@@H](CC(C)C)C(=O)O; NMeV = CN[C@H](C(=O)O)C(C)C

Assays:
Aβ40 = molecular target: T1, Aβ40 (Homo sapiens, UniProt P05067); test: Thioflavin T assay, inhibition of Aβ40 amyloid formation; format: biochemical; conditions: ThT assay; Aβ40 50 μM; 5-fold molar excess; PBS 50 mM pH 7.4, 3% DMSO, 37 °C
T1 construct: 15N labeled (a) Aβ40 (80 μM)
Protocol: First, we monitored the kinetics of the amyloid formation of Aβ40 (50 μM) by thioflavin T (ThT) assay (Fig. 2a and b). The Aβ40 peptide alone aggregated with time, with a growth saturation point around 72 h, as evident from the surge in ThT fluorescence intensity. […] Green-gold birefringence appears to be a standard result of Aβ40 aggregation under cross-polarized light post-staining with Congo red dye. Owing to amyloid formation, Aβ40 appears as green-gold birefringence (Fig. 2d) under cross-polarized light when stained with Congo red.
400μL of the sample was taken in a cuvette of 1mm path length. Three measurements were accumulated.
Spectra were recorded from 190nm to 260nm on a JASCO J-1500 instrument. […]
1.5 mg of commercially available Aβ40 peptide was taken and disaggregated by TFA (50μ L) and evaporated under nitrogen gas. […] To obtain precise results, two more replicate solutions of each portion were prepared (total number of samples for this experiment was 27), and fibrillization was monitored by various biophysical tools. […]
b. Thioflavin T Fluorescence Assay
A stock solution of Thioflavin T (ThT) of concentration 50μM in PBS (50mM, pH 7.4) was prepared and stored at 4 °C with the proper protection to prevent degradation from light. […] For fluorescence studies, 40μLof peptide sample was mixed with 200μL of ThT solution (50μM), and the total volume was made up to 400μL using PBS. […]

SH-SY5Y cells = test: LDH release assay, Aβ40 induced membrane damage; format: cell-based, human; conditions: Aβ40 10 μM, 24 h
Protocol: Then, we explored the membrane damage induced by Aβ40 (ref. [45] and [46]) using the lactate dehydrogenase (LDH) assay.
The release of cytosolic enzyme lactate dehydrogenase (LDH) into the culture medium indicates cell death due to the disruption of membrane integrity. Cell deathwas assessed by measuring LDH release in the culture medium by photocolorimetric kit according to the manufacturer’s protocol (Abcam, Cambridge, MA, USA). An increase in the number of lysed cell increases LDH activity in the culture medium proportionately. […]
Next, 50 µl culture supernatant was collected from each well and added to an assay mixture that was prepared by adding an equal amount of LDH substrate, co-factors, and dye solutions and incubated in the dark for 40mins at 37°C. […] Absorbance was measured at 490 nm with a reference filter of 660nm. […]
Generation of intracellular reactive oxygen species was measured by a spectrofluorimetric method using peroxide sensitive fluorescent probe 2′,7′-Dichlorofluorescin diacetate (DCFH-DA).11 In brief, SH-SY5Y […]
or both for 24h. […] Cells were then washed twice with PBS, and fluorescent intensity was measured by using a fluorescence microplate reader (Bio Rad, CA, USA) with an excitation filter of 490 nm and an emission filter of 520 nm.

T1 sequence (P05067 672-711 limits assumed): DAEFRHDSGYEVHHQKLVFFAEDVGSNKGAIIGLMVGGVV

| Molecule | inhibition of Aβ40 amyloid formation (Aβ40) [%] | LDH release by Aβ40 alone (SH-SY5Y cells) |
| --- | --- | --- |
| CC(C)C[C@H](NC(=O)CNC(=O)CCC(=O)NCCCOCCOCCOCCCNC(=O)CCCCC(=O)NCC(=O)N(C)[C@@H](CC(C)C)C(=O)N[C@H](C(=O)N(C)[C@@H](Cc1ccccc1)C(=O)N[C@@H](Cc1ccccc1)C(=O)N[C@@H](C)C(N)=O)C(C)C)C(=O)N(C)[C@H](C(=O)N[C@@H](Cc1ccccc1)C(=O)N(C)[C@@H](Cc1ccccc1)C(=O)N[C@@H](C)C(N)=O)C(C)C [SP1] (I: GL[NMeV]F[NMeF]A-NH2 / II: G[NMeL]V[NMeF]FA-NH2; linker I:N-II:N via X1) | ~66 | – |
| Aβ40: commercially available Aβ40 peptide | – | released a significant amount of cytosolic LDH |
